Source: ChEMBL document CHEMBL4840351 (J Med Chem, 2021)
Values belong to the molecule of their own block, whether it stands above or below them.

Tests used:
[1] = target: Tyrosine-protein kinase BTK (Homo sapiens, UniProt Q06187); experiment: Inhibition of full-length N-terminal GST tagged BTK (2 to 659 residues) (unknown origin) expressed in Sf21 insect cells using NH2-ETVYSEVRK-biotin as substrate preincubated for 1 hr followed by ATP addition and measured after 2 hrs by ELISA
TMD8 [2] = experiment: Antitumor activity against human TMD8 cells xenografted in CB-17 SCID nude mouse assessed as tumor growth inhibition at 7.5 mg/kg, po bid administered for 21 days; format: functional; conditions: 504 h, time 21 day, read-out: TGI
[3] = target: Epidermal growth factor receptor (Homo sapiens, UniProt P00533); experiment: Inhibition of N-terminal DYKDDDD-tagged EGFR (669 to 1210 residues) (unknown origin) expressed in Sf21 insect cells using NH2-ETVYSEVRK-biotin as substrate preincubated for 1 hr followed by ATP addition and measured after 2 hrs by ELISA
Chain of Epidermal growth factor receptor (P00533 whole entry, the tested form may be a part): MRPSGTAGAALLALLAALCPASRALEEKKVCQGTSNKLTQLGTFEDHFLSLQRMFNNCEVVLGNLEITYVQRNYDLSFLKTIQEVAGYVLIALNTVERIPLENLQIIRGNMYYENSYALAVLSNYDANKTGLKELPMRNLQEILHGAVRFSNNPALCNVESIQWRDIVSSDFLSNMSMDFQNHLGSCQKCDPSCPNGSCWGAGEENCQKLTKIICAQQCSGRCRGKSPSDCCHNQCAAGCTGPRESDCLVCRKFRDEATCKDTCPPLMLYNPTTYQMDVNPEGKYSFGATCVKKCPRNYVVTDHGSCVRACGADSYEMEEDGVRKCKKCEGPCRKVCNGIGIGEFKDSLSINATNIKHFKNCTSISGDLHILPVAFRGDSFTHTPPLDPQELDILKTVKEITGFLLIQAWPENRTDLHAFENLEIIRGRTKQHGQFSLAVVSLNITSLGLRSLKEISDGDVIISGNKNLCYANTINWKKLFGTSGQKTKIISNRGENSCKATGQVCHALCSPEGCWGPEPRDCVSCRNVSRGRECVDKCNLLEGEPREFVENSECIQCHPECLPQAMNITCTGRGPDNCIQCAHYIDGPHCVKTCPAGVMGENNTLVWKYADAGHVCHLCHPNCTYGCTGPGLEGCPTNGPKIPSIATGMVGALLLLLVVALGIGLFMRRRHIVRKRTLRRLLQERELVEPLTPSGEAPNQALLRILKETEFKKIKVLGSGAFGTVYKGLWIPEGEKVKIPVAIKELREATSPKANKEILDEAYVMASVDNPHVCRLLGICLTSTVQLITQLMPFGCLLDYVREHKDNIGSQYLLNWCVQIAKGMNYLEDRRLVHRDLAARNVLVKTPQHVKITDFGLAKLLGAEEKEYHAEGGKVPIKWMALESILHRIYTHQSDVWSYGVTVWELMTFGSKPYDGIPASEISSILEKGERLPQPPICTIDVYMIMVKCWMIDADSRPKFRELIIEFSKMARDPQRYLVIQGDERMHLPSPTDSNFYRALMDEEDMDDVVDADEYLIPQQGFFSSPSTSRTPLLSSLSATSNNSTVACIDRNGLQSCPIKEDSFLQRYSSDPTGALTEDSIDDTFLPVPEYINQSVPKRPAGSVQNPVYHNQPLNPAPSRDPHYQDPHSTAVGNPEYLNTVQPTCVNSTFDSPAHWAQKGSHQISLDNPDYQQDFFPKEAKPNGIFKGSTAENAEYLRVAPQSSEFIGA

[4] = target: T1, Tyrosine-protein kinase ITK/TSK (Homo sapiens, UniProt Q08881); experiment: Inhibition of full-length N-terminal GST-tagged ITK (2 to 620 residues) (unknown origin) expressed in Sf21 insect cells using NH2-ETVYSEVRK-biotin as substrate preincubated for 1 hr followed by ATP addition and measured after 2 hrs by ELISA
T1 sequence (Q08881 whole entry): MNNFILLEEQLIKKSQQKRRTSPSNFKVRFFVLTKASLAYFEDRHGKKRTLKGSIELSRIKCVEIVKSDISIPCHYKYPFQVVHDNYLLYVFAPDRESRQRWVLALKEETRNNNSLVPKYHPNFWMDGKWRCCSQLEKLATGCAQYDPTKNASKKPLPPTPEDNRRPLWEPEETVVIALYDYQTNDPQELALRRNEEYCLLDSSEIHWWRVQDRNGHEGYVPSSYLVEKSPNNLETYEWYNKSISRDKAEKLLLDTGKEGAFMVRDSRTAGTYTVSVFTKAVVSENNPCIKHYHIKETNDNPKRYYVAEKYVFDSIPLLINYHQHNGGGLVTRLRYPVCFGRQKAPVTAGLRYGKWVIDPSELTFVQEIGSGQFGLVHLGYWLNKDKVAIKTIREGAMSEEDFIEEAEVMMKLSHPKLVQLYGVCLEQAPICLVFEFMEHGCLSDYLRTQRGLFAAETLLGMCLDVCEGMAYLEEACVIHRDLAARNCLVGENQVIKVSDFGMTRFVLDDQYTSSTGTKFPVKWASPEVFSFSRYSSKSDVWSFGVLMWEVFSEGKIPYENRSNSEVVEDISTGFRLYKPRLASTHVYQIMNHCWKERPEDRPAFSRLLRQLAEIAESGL

Pfeiffer = experiment: Antiproliferative activity against human Pfeiffer cells assessed as reduction in cell viability incubated for 72 hrs by celltiter-glo assay
[5] = Cmax in ICR mouse at 15 mg/kg, po after 24 hrs; format: ADME, organism-based; set-up: route oral, time 24 hrs, dose 15 mg/kg; conditions: in vivo
[6] = Receptor occupancy at BTK in spleen of ICR mouse at 15 mg/kg, po after 24 hrs by ELISA; format: functional
Ramos = experiment: Antiproliferative activity against human Ramos cells assessed as reduction in cell viability incubated for 72 hrs by celltiter-glo assay
SU-DHL-2 = experiment: Antiproliferative activity against human SUDHL2 cells assessed as reduction in cell viability incubated for 72 hrs by celltiter-glo assay; conditions: SU-DHL-2, 72 h
Rec1 = experiment: Antiproliferative activity against human REC-1 cells assessed as reduction in cell viability incubated for 72 hrs by celltiter-glo assay; conditions: Rec1, 72 h
TMD8 [7] = experiment: Antiproliferative activity against human TMD8 cells assessed as reduction in cell viability incubated for 72 hrs by celltiter-glo assay; conditions: TMD8, 72 h
MOLM-13 = experiment: Antiproliferative activity against human MOLM-13 cells assessed as reduction in cell viability incubated for 72 hrs by celltiter-glo assay; conditions: MOLM-13, 72 h
NAMALVA = experiment: Antiproliferative activity against human NAMALWA cells assessed as reduction in cell viability incubated for 72 hrs by celltiter-glo assay
Raji = experiment: Antiproliferative activity against human Raji cells assessed as reduction in cell viability incubated for 72 hrs by celltiter-glo assay
TMD8 [8] = experiment: Induction of cell cycle arrest in human TMD8 cells assessed as accumulation of cells at G1 phase at 3 nM incubated for 48 hrs by PI staining based flow cytometric analysis (reference value: 57.66 %); format: functional
TMD8 [9] = experiment: Induction of apoptosis in human TMD8 cells at 3000 nM incubated for 72 hrs by Annexin V-FITC/PI staining based flow cytometric analysis (reference value: 13.4 %); format: functional
TMD8 [10] = experiment: Induction of cell cycle arrest in human TMD8 cells assessed as accumulation of cells at S phase at 300 nM incubated for 48 hrs by PI staining based flow cytometric analysis (reference value: 37.42 %); format: functional
TMD8 [11] = experiment: Induction of cell cycle arrest in human TMD8 cells assessed as accumulation of cells at G2 phase at 300 nM incubated for 48 hrs by PI staining based flow cytometric analysis (reference value: 4.92 %); format: functional
TMD8 [12] = experiment: Induction of apoptosis in human TMD8 cells at 300 nM incubated for 72 hrs by Annexin V-FITC/PI staining based flow cytometric analysis (reference value: 13.4 %); format: functional
TMD8 [13] = experiment: Induction of cell cycle arrest in human TMD8 cells assessed as accumulation of cells at G2 phase at 30 nM incubated for 48 hrs by PI staining based flow cytometric analysis (reference value: 4.92 %); format: functional
TMD8 [14] = experiment: Induction of apoptosis in human TMD8 cells at 30 nM incubated for 72 hrs by Annexin V-FITC/PI staining based flow cytometric analysis (reference value: 13.4 %); format: functional
TMD8 [15] = experiment: Induction of cell cycle arrest in human TMD8 cells assessed as accumulation of cells at G1 phase at 30 nM incubated for 48 hrs by PI staining based flow cytometric analysis (reference value: 57.66 %); format: functional
TMD8 [16] = experiment: Induction of cell cycle arrest in human TMD8 cells assessed as accumulation of cells at S phase at 30 nM incubated for 48 hrs by PI staining based flow cytometric analysis (reference value: 37.42 %); format: functional
TMD8 [17] = experiment: Induction of cell cycle arrest in human TMD8 cells assessed as accumulation of cells at G2 phase at 3 nM incubated for 48 hrs by PI staining based flow cytometric analysis (reference value: 4.92 %); format: functional
TMD8 [18] = experiment: Induction of cell cycle arrest in human TMD8 cells assessed as accumulation of cells at G1 phase at 300 nM incubated for 48 hrs by PI staining based flow cytometric analysis (reference value: 57.66 %); format: functional
TMD8 [19] = experiment: Induction of cell cycle arrest in human TMD8 cells assessed as accumulation of cells at S phase at 3 nM incubated for 48 hrs by PI staining based flow cytometric analysis (reference value: 37.42 %); format: functional

Chain of Tyrosine-protein kinase BTK (Q06187 whole entry, the tested form may be a part): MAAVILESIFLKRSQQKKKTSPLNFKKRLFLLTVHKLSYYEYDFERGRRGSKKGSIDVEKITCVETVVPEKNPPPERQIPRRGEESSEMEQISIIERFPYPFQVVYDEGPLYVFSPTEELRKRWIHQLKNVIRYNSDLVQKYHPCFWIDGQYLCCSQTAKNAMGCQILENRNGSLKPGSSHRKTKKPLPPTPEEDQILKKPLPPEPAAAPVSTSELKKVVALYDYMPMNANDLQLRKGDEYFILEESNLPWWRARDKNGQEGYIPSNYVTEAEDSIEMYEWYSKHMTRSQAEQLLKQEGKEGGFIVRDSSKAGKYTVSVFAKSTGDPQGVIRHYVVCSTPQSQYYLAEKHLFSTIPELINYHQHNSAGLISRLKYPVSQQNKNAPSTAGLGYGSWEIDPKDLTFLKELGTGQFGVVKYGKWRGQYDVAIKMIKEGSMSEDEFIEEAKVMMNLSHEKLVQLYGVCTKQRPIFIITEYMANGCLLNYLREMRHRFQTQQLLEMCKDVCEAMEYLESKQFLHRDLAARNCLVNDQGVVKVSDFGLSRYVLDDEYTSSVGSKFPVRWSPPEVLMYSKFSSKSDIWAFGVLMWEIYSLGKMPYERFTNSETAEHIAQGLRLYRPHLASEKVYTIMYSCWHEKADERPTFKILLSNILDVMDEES

SMILES: C=CC(=O)N1CCC[C@@H](n2nc(-c3ccc(Oc4ccccc4)cc3)c3c(N)ncnc32)C1 [IBRUTINIB]
- inhibition in vivo at 7.5 mg/kg (TMD8 [2]): 99%

SMILES: CC#CC(=O)N1CCC[C@H]1c1nc(-c2ccc(C(=O)Nc3ccccn3)cc2)c2c(N)nccn12 [ACALABRUTINIB]
- IC50 (Pfeiffer): > 10000 nM
- inhibition in vivo at 7.5 mg/kg (TMD8 [2]): 91%
- Cmax [5]: 780 nM
- Occ [6]: 44%
- IC50 (Ramos): 31300 nM
- IC50 (SU-DHL-2): > 10000 nM
- IC50 (Rec1): 13 nM
- IC50 (TMD8 [7]): 24 nM
- IC50 (MOLM-13): 358000 nM
- IC50 (NAMALVA): > 10000 nM
- IC50 (Raji): > 10000 nM

SMILES: C=CC(=O)N1CCC[C@@H](c2nc(-c3ccc(C(=O)Nc4cc(CC)ccn4)cc3)c(C(N)=O)n2N)C1
- IC50 [1]: 18.9 nM

SMILES: C#CC(=O)N1CCCC[C@H]1c1nc(-c2ccc(C(=O)Nc3cc(CC)ccn3)cc2)c(C(N)=O)n1N
- IC50 [1]: 10 nM

SMILES: CC#CC(=O)N1CCCC[C@H]1c1nc(-c2ccc(C(=O)Nc3cc(Cl)ccn3)cc2)c(C(N)=O)n1N
- IC50 [3]: > 30000 nM
- IC50 [4]: > 30000 nM

SMILES: CC/C=C/C(=O)N1CCCC[C@H]1c1nc(-c2ccc(C(=O)Nc3cc(CC)ccn3)cc2)c(C(N)=O)n1N
- IC50 [1]: > 10000 nM

SMILES: C=C(C)C(=O)N1CCCC[C@H]1c1nc(-c2ccc(C(=O)Nc3cc(CC)ccn3)cc2)c(C(N)=O)n1N
- IC50 [1]: > 10000 nM

SMILES: CCc1ccnc(NC(=O)c2ccc(-c3nc([C@@H]4CCCCN4C(=O)/C(C#N)=C/C(C)C)n(N)c3C(N)=O)cc2)c1
- IC50 [1]: > 10000 nM

SMILES: CCc1ccnc(NC(=O)c2ccc(-c3nc([C@@H]4CCCCN4C(=O)/C(C#N)=C/C4CC4)n(N)c3C(N)=O)cc2)c1
- IC50 [1]: > 10000 nM

SMILES: CC#CC(=O)N1CCCC[C@H]1c1nc(-c2ccc(C(=O)Nc3cc(C(F)(F)F)ccn3)cc2)c(C(N)=O)n1N
- Activity (TMD8 [8]): 54.63%
- Activity (TMD8 [9]): 81.3%
- Activity (TMD8 [10]): 1.96%
- Activity (TMD8 [11]): 3.18%
- Activity (TMD8 [12]): 36.8%
- Activity (TMD8 [13]): 4.76%
- Activity (TMD8 [14]): 14.1%
- Activity (TMD8 [15]): 67.44%
- Activity (TMD8 [16]): 27.8%
- IC50 (Ramos): 770 nM
- Activity (TMD8 [17]): 4.09%
- Activity (TMD8 [18]): 94.86%
- IC50 [4]: > 30000 nM
- IC50 (TMD8 [7]): 54 nM
- IC50 (MOLM-13): 730 nM
- Activity (TMD8 [19]): 41.28%

SMILES: CCc1ccnc(NC(=O)c2ccc(-c3nc([C@@H]4CCCCN4C(=O)C=C(C)C)n(N)c3C(N)=O)cc2)c1
- IC50 [1]: > 10000 nM

SMILES: CCC(=O)N1CCCC[C@H]1c1nc(-c2ccc(C(=O)Nc3cc(C(F)(F)F)ccn3)cc2)c(C(N)=O)n1N
- IC50 [1]: 4750 nM

Next, values leading:

- IC50 [1]: 226 nM
SMILES: C=CC(=O)N1CCCCC[C@H]1c1nc(-c2ccc(C(=O)Nc3cc(CC)ccn3)cc2)c(C(N)=O)n1N

- IC50 [3]: 79.4 nM
- IC50 [4]: 2210 nM
SMILES: C=CC(=O)N1CCCC[C@H]1c1nc(-c2ccc(C(=O)Nc3cc(-c4ccccc4)ccn3)cc2)c(C(N)=O)n1N

- IC50 [3]: 16800 nM
- IC50 [4]: > 30000 nM
SMILES: CC#CC(=O)N1CCCC[C@H]1c1nc(-c2ccc(C(=O)Nc3cc(-c4ccccc4)ccn3)cc2)c(C(N)=O)n1N

- IC50 [1]: > 10000 nM
SMILES: C/C=C/C(=O)N1CCCC[C@H]1c1nc(-c2ccc(C(=O)Nc3cc(CC)ccn3)cc2)c(C(N)=O)n1N

- IC50 [3]: 176 nM
- IC50 [4]: 29500 nM
SMILES: C=CC(=O)N1CCCC[C@H]1c1nc(-c2ccc(C(=O)Nc3cc(Cl)ccn3)cc2)c(C(N)=O)n1N

- IC50 [1]: 571 nM
SMILES: C=CC(=O)N1CCCC[C@H]1c1nc(-c2ccc(C(=O)Nc3ccccc3)cc2)c(C(N)=O)n1N

- IC50 [3]: 113 nM
- IC50 [4]: 6060 nM
SMILES: C=CC(=O)N1CCCC[C@H]1c1nc(-c2ccc(C(=O)Nc3cc(-c4ccc(F)cc4)ccn3)cc2)c(C(N)=O)n1N

- IC50 [3]: 578 nM
- IC50 [4]: 15300 nM
SMILES: C=CC(=O)N1CCCC[C@H]1c1nc(-c2ccc(C(=O)Nc3cc(Br)ccn3)cc2)c(C(N)=O)n1N

- IC50 [3]: 450 nM
- IC50 [4]: > 30000 nM
SMILES: C=CC(=O)N1CCCC[C@H]1c1nc(-c2ccc(C(=O)Nc3cc(OC)ccn3)cc2)c(C(N)=O)n1N

- IC50 [1]: 39.3 nM
SMILES: C=CC(=O)N1CCC[C@H]1c1nc(-c2ccc(C(=O)Nc3cc(CC)ccn3)cc2)c(C(N)=O)n1N

- IC50 [1]: 11.3 nM
SMILES: C=CC(=O)N1CCCC[C@H]1c1nc(-c2ccc(C(=O)Nc3cc(CC)ccn3)cc2)c(C(N)=O)n1N

- IC50 [1]: 17.1 nM
SMILES: C=CC(=O)N1CCCC[C@H]1c1nc(-c2ccc(C(=O)Nc3cc(C#N)ccn3)cc2)c(C(N)=O)n1N

- IC50 [1]: 5160 nM
SMILES: C=CC(=O)N1CCCC[C@H]1c1nc(-c2ccc(C(=O)Nc3cc(C(F)(F)F)ccn3)cc2)c(C(=O)OCC)n1N

- IC50 [1]: > 10000 nM
SMILES: C=CC(=O)N1CCCC[C@H]1c1nc(-c2ccc(C(=O)Nc3cccnc3)cc2)c(C(N)=O)n1N

- IC50 [3]: 12.6 nM
- IC50 [4]: 1920 nM
SMILES: C=CC(=O)N1CCCC[C@H]1c1nc(-c2ccc(C(=O)Nc3cc(-c4ccc(Cl)cc4)ccn3)cc2)c(C(N)=O)n1N
